From US7915263B2, “Aminopyridine derivatives having aurora A selective inhibitory action” (Banyu Pharmaceutical Co., Ltd., priority 2006, dated 2011)

Columns and labels:
[1] = target: T1, His-tagged human Aurora A (Homo sapiens, UniProt O14965); test: Aurora A inhibitory activity (IMAP fluorescence polarization); type: biochemical; conditions: 20 μM ATP, 30° C., 120 minutes
T1 construct: made in house; host or cells: Escherichia coli BL21-CodonPlus(DE3)-RIL
T1 sequence (O14965 1-403): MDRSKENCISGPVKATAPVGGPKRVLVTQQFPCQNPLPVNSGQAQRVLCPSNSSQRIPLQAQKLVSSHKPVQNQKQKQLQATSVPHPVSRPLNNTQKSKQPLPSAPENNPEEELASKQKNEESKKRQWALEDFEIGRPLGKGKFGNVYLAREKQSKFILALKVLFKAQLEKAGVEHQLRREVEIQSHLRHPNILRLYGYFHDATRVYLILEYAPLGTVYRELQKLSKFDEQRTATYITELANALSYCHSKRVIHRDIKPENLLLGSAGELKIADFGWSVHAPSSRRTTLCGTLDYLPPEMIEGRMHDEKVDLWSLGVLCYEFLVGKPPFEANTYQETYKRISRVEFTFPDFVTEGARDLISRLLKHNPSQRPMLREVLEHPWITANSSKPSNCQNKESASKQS
Text: cDNA of N-terminal His-tagged human Aurora A was integrated into an expression vector, which was then highly expressed in Escherichia coli BL21-CodonPlus(DE3)-RIL cells. The Escherichia coli was harvested and lysed, and then the His-tagged human Aurora A protein was applied onto a nickel chelate column and eluted from the column with imidazole. The active fractions were desalted with a desalting column to give a purified enzyme.
Concretely, the phosphorylation reaction and the detection were carried out as follows:
The phosphorylation reaction was conducted using 384 well plate, and the reaction volume was 10 μl/well. The reaction buffer is comprised of 50 mM Tris-chloride buffer (pH 7.4), 15 mM magnesium acetate, and 0.2 mM ethylenediamine-N,N,N′,N′-tetraacetic acid (EDTA). […]
Thereafter, in order to terminate and detect the reaction, 30 μl of the IMAP (registered trademark) binding reagent (IMAP Progressive Binding Reagent, R7284) that had been diluted (1:400) in the 1× IMAP binding buffer A (IMAP Progressive Binding Buffer A, 5× stock, R7282) was added to each well. The solution stood still for 60 minutes in the dark, and then fluorescence polarization was measured using a high-end microplate reader (excitation wavelength: 485 nm; emission wavelength: 520 nm). […]

[2] = target: T2, GST-tagged human Aurora B(AurB)/His-tagged human INCENP complex proteins (Homo sapiens, UniProt Q96GD4); test: Aurora B inhibitory activity (Method A, IMAP kit); type: biochemical; conditions: 40 μM ATP, 25° C., 45 minutes
T2 construct: GST; purchased Cama Biosciences, Inc. (so in the source)
T2 sequence (Q96GD4 whole entry): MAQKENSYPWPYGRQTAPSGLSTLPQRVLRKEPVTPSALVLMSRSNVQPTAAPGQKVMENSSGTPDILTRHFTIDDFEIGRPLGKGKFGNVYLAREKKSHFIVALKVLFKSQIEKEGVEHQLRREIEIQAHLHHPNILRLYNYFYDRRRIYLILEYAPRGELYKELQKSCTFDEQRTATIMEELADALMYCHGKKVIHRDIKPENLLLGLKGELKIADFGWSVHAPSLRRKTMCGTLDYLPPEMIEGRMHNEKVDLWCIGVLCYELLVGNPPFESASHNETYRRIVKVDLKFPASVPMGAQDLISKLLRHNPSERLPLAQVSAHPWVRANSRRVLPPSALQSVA
T2 sequence (Q9NQS7 803-916 partner limits assumed): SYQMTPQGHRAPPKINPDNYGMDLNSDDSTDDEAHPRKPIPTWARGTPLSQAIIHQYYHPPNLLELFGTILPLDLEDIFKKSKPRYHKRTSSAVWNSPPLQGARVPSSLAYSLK
Experimental: Using the same, the phosphorylation reaction was conducted in accordance with a partially revised protocol attached to the kit, and then the phosphorylation of the substrate was detected using the IMAP technology.
For the phosphorylation reaction, 384 well plate was used, and the reaction volume was 10 μl/well. The composition of the reaction buffer (assay buffer) is comprised of 20 mM of HEPES buffer (pH 7.4), 0.01% Tween-20, and 2 mM of dithiothreitol (DTT). Thereto, AurB/INCENP complex protein, 100 nM of the substrate, and 40 μM of ATP, and 1 mM of magnesium salt were added, and then the reaction was conducted at 25° C. for 45 minutes. Thereafter, in order to terminate and detect the reaction, 30 μl of the IMAP (registered trademark) binding reagent (IMAP Progressive Binding Reagent, R7284) that had been diluted (1:400) in the 1× IMAP binding buffer A (IMAP Progressive Binding Buffer A, 5× stock, R7282) was added to each well.
The compound to be tested was added to the reaction system such that a dilution series of the compound in DMSO was prepared, and then 0.5 μL of this solution was added for the testing to each well. Each control well was provided by adding 0.5 μL of DMSO to the well in place of the DMSO solution containing the compound to be tested.

[3] = tested on: Human cervical cancer cells (HeLa S3); test: Effect by combined use of drugs in cells (docetaxel), WST-8 method; type: cell-based
Experimental: Fetal calf serum (FCS) was purchased from Moregate Biotech, DMEM medium from Invitrogen Corp., docetaxel (tradename: Taxere) from Sigma-Aldrich, Inc., and WST-8 from Kishida Chemical Co., Ltd.
(§1) Human cervical cancer cells (HeLa S3) were obtained from the American Type Culture Collection (ATCC).
Cells were suspended in a DMEM medium containing 10% FCS, and the cell suspension was dispensed to two 96-well plastic plates at a rate of 750 cells/100 microliters per well. The plates were incubated overnight in 5% CO2-95% air at 37° C. A drug was subjected to graded dilution in dimethylsulfoxide and further diluted with DMSO or with a DMEM medium containing 10% FCS and also containing 0.6 nM docetaxel. Then, the dilutions were each dispensed to one of the plates on which cells had been disseminated, at a rate of 100 microliters per well. The final concentration of docetaxel at this stage was 0.3 nM. Also, the concentrations in the case of sole administration of the compound according to the invention were 0.003, 0.01, 0.03, 0.1, 0.3, 1, 3 and 10 μM. The plates were incubated for further three days in 5% CO2-95% air at 37° C. Cell growth after incubation was measured by the WST-8 method (H. Tominaga, et al., Anal. Commun., 36, 47-50 (1999)). Here, the WST-8 method refers to a method in which 20 microliters of a WST-8 reagent solution is added to each well, incubation is conducted at 37° C. for 60 minutes, the plate is stirred, and the amount of formazan produced is measured by a colorimetric method to determine the inhibitory rate of the drug. The growth inhibitory effects of docetaxel and of the compound according to the invention were determined, with the value obtained in sole treatment of DMSO being defined as 0%.

[4] = tested on: Human cervical cancer cells (HeLa S3); test: Cell growth inhibitory effect, WST-8 method; type: cell-based; conditions: 72 h, HeLa S3, three days incubation, read-out: Cell growth inhibitory effect (HeLaS3) (IC50)
Experimental: Fetal calf serum (FCS) was purchased from Moregate Biotech, and DMEM medium was purchased from Invitrogen Corp. WST-8 was purchased from Kishida Chemical Co., Ltd.
as §1
Cells were suspended in a DMEM medium containing 10% FCS, and the cell suspension was dispensed to a 96-well plastic plate at a rate of 750 cells/100 microliters per well. The plate was incubated overnight in 5% CO2-95% air at 37° C. A drug was subjected to graded dilution in dimethylsulfoxide and further diluted with a DMEM medium containing 10% FCS. Then, the dilution was dispensed to the plate on which cells had been disseminated, at a rate of 100 microliters per well.

## Fc1c(O[C@H]2CC[C@](Cc3cccc(Nc4cc[nH]n4)n3)(c3nncs3)CC2)cccc1C(F)(F)F [Example 27, 6-((trans-4-(2-fluoro-3-(trifluoromethyl)phenoxy)-1-(1,3,4-thiadiazol-2-yl)cyclohexyl)methyl)-N-1H-pyrazol-3-ylpyridin-2-amine]
[1]
  IC50: 2.4 nM
[2]
  IC50: 220 nM

## O=c1[nH]nc([C@]2(Cc3cncc(Nc4cc[nH]n4)n3)CC[C@@H](Oc3cccc(Cl)c3F)CC2)o1 [Example 29, 5-(trans-4-(3-chloro-2-fluorophenoxy)-1-((6-(1H-pyrazol-3-ylamino)pyrazin-2-yl)methyl)cyclohexyl)-1,3,4-oxadiazol-2(3H)-one]
[3]; Homo sapiens, HeLa S3, compound 0.1 μM alone, read-out: Cell growth inhibitory effect by sole administration of the compound of Example (%)
  inhibition at 0.1 µM: 11.3%
[3]; Homo sapiens, HeLa S3, compound 0.3 μM alone, read-out: Cell growth inhibitory effect by sole administration of the compound of Example (%)
  inhibition at 0.3 µM: 39.9%
[3]; compound 0.1 μM + docetaxel 0.3 nM
  Cell growth inhibitory effect by combined administration of docetaxel and the compound of Example (%): 79.0%
[3]; compound 0.3 μM + docetaxel 0.3 nM
  Cell growth inhibitory effect by combined administration of docetaxel and the compound of Example (%): 92.9%
[1]
  IC50: 0.19 nM
[2]
  IC50: 670 nM
[4]
  IC50: 670 nM
